The subject of test [1] is 409B2 hiPSC (iCRISPR Cas9, FRMD7 editing). As to the kind of experiment: cell survival relative to solvent control (fold (ratio to mock)); higher = more surviving cells. As for the experimental part: (§1)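 Subset screen of 55 drugs tested at 5 concentrations around the effective screening dose, in 409B2 iCRISPR Cas9 hiPSCs editing FRMD7 with a ssDNA donor. Drugs were applied for 24 h. Viability was read by resazurin and editing outcomes by amplicon sequencing (HDR, NHEJ <2 bp microhomology, MMEJ ≥2 bp microhomology). Values are relative to solvent mock controls; two biological replicates.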

The test system is the same in test [2]. As to the kind of experiment: MMEJ-attributed deletion frequency relative to solvent control (fold (ratio to mock)); higher = more MMEJ outcomes. The protocol:
as §1

The test system is the same in test [3]. As to the kind of experiment: HDR (precise edit) frequency relative to solvent control (fold (ratio to mock)); higher = more homology-directed repair outcomes. The protocol:
as §1

For test [4] the test system is unchanged. As to the kind of experiment: NHEJ-attributed indel frequency relative to solvent control (fold (ratio to mock)); higher = more NHEJ outcomes. The protocol:
as §1

Results on 6 compounds are retold here after the supplement of paper PMC12698765.

Where a name gives a salt, the structure may show the parent alone. ± gives the standard deviation of the averaged measurements.

As to `O=C1NC(=O)[C@@H](c2cn3c4c(cccc24)CCC3)[C@@H]1c1c[nH]c2ccccc12` [Tivantinib (ARQ 197)] (in DMSO), the cell survival in test [1] (200 nM) worked out at 0.979; in test [1] (500 nM) it was 1.04; in test [1] (1000 nM), 0.271; in test [1] (2000 nM) it was 0.0426; in test [1] (5000 nM), 0.0118. Further, the MMEJ-attributed deletion frequency in test [2] (200 nM) was 0.915 ± 0.074; in test [2] (500 nM), 0.98 ± 0.025; in test [2] (1000 nM), 1 ± 0.088; in test [2] (2000 nM), 1.48 ± 0.36; in test [2] (5000 nM) it was 0.786 ± 0.051. In addition, the HDR turned out to be 1.01 ± 0.089 in test [3] (200 nM); 1.05 ± 0.015 in test [3] (500 nM); 0.897 ± 0.1 in test [3] (1000 nM); 0.507 ± 0.081 in test [3] (2000 nM); 0.281 ± 0.0069 in test [3] (5000 nM). Moreover, the NHEJ-attributed indel frequency in test [4] (200 nM) was determined as 0.949 ± 0.045; in test [4] (500 nM), 1.01 ± 0.025; in test [4] (1000 nM) it was 1.115 ± 0.0054; in test [4] (2000 nM) it was 1 ± 0.05; in test [4] (5000 nM), 0.532 ± 0.069.
As for `CC[C@@]1(O)C(=O)OCc2c1cc1n(c2=O)Cc2cc3c(CN(C)C)c(O)ccc3nc2-1` [Topotecan] (in DMSO), the cell survival was 0.777 in test [1] (2 nM); 0.814 in test [1] (5 nM); 0.361 in test [1] (10 nM); 0.0825 in test [1] (20 nM); 0.0185 in test [1] (50 nM). Also, the MMEJ-attributed deletion frequency in test [2] (2 nM) stood at 1.13 ± 0.065; in test [2] (5 nM) it was 1.04 ± 0.1; in test [2] (10 nM), 0.835 ± 0.1; in test [2] (20 nM), 0.595 ± 0.26; in test [2] (50 nM), 0.699 ± 0.15. For the same compound, the HDR in test [3] (2 nM) is 1.11 ± 0.042; in test [3] (5 nM), 1.07 ± 0.049; in test [3] (10 nM), 0.938 ± 0.035; in test [3] (20 nM), 0.975 ± 0.16; in test [3] (50 nM) it was 0.321 ± 0.15. Besides, the NHEJ-attributed indel frequency worked out at 0.951 ± 0.029 in test [4] (2 nM); 0.936 ± 0.04 in test [4] (5 nM); 0.896 ± 0.032 in test [4] (10 nM); 0.68 ± 0.029 in test [4] (20 nM); 0.625 ± 0.023 in test [4] (50 nM).
Take `C[C@@H]1O[C@@H](O[C@@H]2[C@@H](O)[C@H](OCCc3ccc(O)c(O)c3)O[C@H](CO)[C@H]2OC(=O)/C=C/c2ccc(O)c(O)c2)[C@H](O)[C@H](O)[C@H]1O` [Verbascoside] (in DMSO): the cell survival is 0.884 in test [1] (20 nM); 1.1 in test [1] (50 nM); 0.99 in test [1] (100 nM); 1.11 in test [1] (200 nM); 1.04 in test [1] (500 nM). Besides, the MMEJ-attributed deletion frequency was determined as 1.01 ± 0.02 in test [2] (20 nM); 0.993 ± 0.082 in test [2] (50 nM); 1.06 ± 0.06 in test [2] (100 nM); 0.976 ± 0.13 in test [2] (200 nM); 1.02 ± 0.087 in test [2] (500 nM). Moreover, the HDR worked out at 1.1 ± 0.064 in test [3] (20 nM); 1.13 ± 0.017 in test [3] (50 nM); 1.024 ± 0.0069 in test [3] (100 nM); 1.04 ± 0.044 in test [3] (200 nM); 1.11 ± 0.012 in test [3] (500 nM). Further, the NHEJ-attributed indel frequency in test [4] (20 nM) stood at 0.964 ± 0.014; in test [4] (50 nM) it was 1.01 ± 0.033; in test [4] (100 nM), 0.994 ± 0.03; in test [4] (200 nM), 1 ± 0.019; in test [4] (500 nM), 0.975 ± 0.016.
Turning to `CC[C@]1(O)C[C@@H]2CN(CCc3c([nH]c4ccccc34)[C@@](C(=O)OC)(c3cc4c(cc3OC)N(C)[C@H]3[C@@](O)(C(=O)OC)[C@H](OC(C)=O)[C@]5(CC)C=CCN6CC[C@]43[C@@H]65)C2)C1` [Vinblastine sulfate] (in DMSO), the cell survival is 0.687 in test [1] (2 nM); 0.117 in test [1] (5 nM); 0.0623 in test [1] (10 nM); 0.00294 in test [1] (20 nM); 0.00452 in test [1] (50 nM). In addition, the MMEJ-attributed deletion frequency was 1.11 ± 0.049 in test [2] (2 nM); 1.08 ± 0.057 in test [2] (5 nM); 1.13 ± 0.55 in test [2] (10 nM); 0.779 ± 0.3 in test [2] (20 nM); 0.6333 ± 0.0063 in test [2] (50 nM). In addition, the HDR was 1.08 ± 0.098 in test [3] (2 nM); 0.737 ± 0.042 in test [3] (5 nM); 0.633 ± 0.4 in test [3] (10 nM); 0.511 ± 0.28 in test [3] (20 nM); 0.302 ± 0.056 in test [3] (50 nM). Also, the NHEJ-attributed indel frequency was determined as 1.04 ± 0.018 in test [4] (2 nM); 0.958 ± 0.12 in test [4] (5 nM); 0.792 ± 0.39 in test [4] (10 nM); 0.606 ± 0.21 in test [4] (20 nM); 0.498 ± 0.064 in test [4] (50 nM).
On to `CC(O)C(=O)O` (stereo not given) [lactate] (in H2O), for which the cell survival in test [1] (200 nM) was determined as 1.15; in test [1] (500 nM) it was 1.08; in test [1] (1000 nM), 0.963; in test [1] (2000 nM), 1.06; in test [1] (5000 nM) it was 1.15. Further, the MMEJ-attributed deletion frequency was determined as 1.01 ± 0.044 in test [2] (200 nM); 0.849 ± 0.074 in test [2] (500 nM); 0.952 ± 0.094 in test [2] (1000 nM); 1.05 ± 0.096 in test [2] (2000 nM); 1 ± 0.094 in test [2] (5000 nM). Moreover, the HDR in test [3] (200 nM) came to 1.02 ± 0.065; in test [3] (500 nM) it was 0.941 ± 0.056; in test [3] (1000 nM) it was 0.946 ± 0.091; in test [3] (2000 nM) it was 1.01 ± 0.1; in test [3] (5000 nM), 1.005 ± 0.0083. The NHEJ-attributed indel frequency in test [4] (200 nM) was 0.984 ± 0.021; in test [4] (500 nM), 1.02 ± 0.028; in test [4] (1000 nM) it was 1.04 ± 0.03; in test [4] (2000 nM), 0.998 ± 0.047; in test [4] (5000 nM) it was 1 ± 0.013.
Consider `CC[C@]1(O)C[C@@H]2CN(CCc3c([nH]c4ccccc34)[C@@](C(=O)OC)(c3cc4c(cc3OC)N(C)[C@H]3[C@@](O)(C(=O)OC)[C@H](OC(C)=O)[C@]5(CC)C=CCN6CC[C@]43[C@@H]65)C2)C1` [vinblastine] (in DMSO), for which the cell survival in test [1] (2 nM) stood at 0.524; in test [1] (5 nM), 0.114; in test [1] (10 nM) it was 0.0472; in test [1] (20 nM) it was 0.00549; in test [1] (50 nM), 0.0072. Moreover, the MMEJ-attributed deletion frequency is 1.02 ± 0.27 in test [2] (2 nM); 1.51 ± 0.71 in test [2] (5 nM); 0.931 ± 0.61 in test [2] (10 nM); 0.674 ± 0.053 in test [2] (20 nM); 0.827 ± 0.05 in test [2] (50 nM). Further, the HDR worked out at 0.877 ± 0.038 in test [3] (2 nM); 0.65 ± 0.05 in test [3] (5 nM); 0.556 ± 0.031 in test [3] (10 nM); 0.249 ± 0.051 in test [3] (20 nM); 0.248 ± 0.035 in test [3] (50 nM). Also, the NHEJ-attributed indel frequency worked out at 1.07 ± 0.05 in test [4] (2 nM); 0.982 ± 0.17 in test [4] (5 nM); 0.857 ± 0.17 in test [4] (10 nM); 0.415 ± 0.0047 in test [4] (20 nM); 0.557 ± 0.013 in test [4] (50 nM).
